System: C57B1/6J mice
Test: Changes in body weight of mice after a single subcutaneous injection of TCDD
Assay type: in vivo
Details: for Weight (body weight): at sacrifice
Description: Male C57B1/6J mice of 5 weeks old having the average weight of 18-22 g which had been bred in CRJ (Charles River in Japan) were purchased and used in this example as experimental animals. Those mice were acclimated under the constant breeding condition, i.e. the temperature of 24±1° C., the humidity of 60±10% and the light and darkness cycle of 12 hours, for one week and thereafter, utilized in the experiment.
The Experimental animals were supplied with Purina powdered feed (purchased from Hae Eun Trade) and supplied with water ad libitum. All the animals were weighed twice a week during experimentation.
2,3,7,8-tetrachlorodibenzo-p-dioxin (TCDD) dissolved in toluene (purity of 95% or more as a result of gas chromatography analysis), manufactured by Chem. Services Inc. in USA, was volatilized with nitrogen to obtain powder. The obtained powder was dissolved in a mixed solvent containing acetone and corn oil with a volume ratio of 1:6. The resulting solution each containing 110, 27.5 and 6.9 μg/kg of TCDD was subcutaneously injected to mice at a volume of 5 ml per body weight. […] The mice were supplied with the feed from 10 days before (pre-administration) to 60 days after administration of TCDD (post-administration).
The results are expressed as Mean±Standard Deviation values. For statistical analysis of the body weight, feed and water uptake, biochemical findings, hematological findings and the weight of organ in an acute toxicity test, verification was performed by one way analysis of variance (ANOVA) in case of equal distribution. In case significance was recognized in ANOVA, the Student's t-test was performed in the levels of p<0.05 and p<0.01.

With C[C@H](CCC(=O)O)[C@H]1CC[C@H]2[C@@H]3[C@@H](O)C[C@@H]4C[C@H](O)CC[C@]4(C)[C@H]3CC[C@]12C [UDCA, 3α, 7β-dihydroxy-5β-cholanoic acid] the body weight (TCDD 6.9 μg/kg + UDCA 0.25 wt %, 12 days) was 22.18 ± 0.38, the body weight (TCDD 6.9 μg/kg + UDCA 0.25 wt %, 22 days) was 23.81 ± 0.43 and the body weight (TCDD 6.9 μg/kg + UDCA 0.25 wt %, 32 days) was 24.21 ± 0.47. For the same compound, the body weight (TCDD 6.9 μg/kg + UDCA 0.25 wt %, 39 days) was 25.69 ± 0.45, the body weight (TCDD 6.9 μg/kg + UDCA 0.25 wt %, 50 days) was 27.15 ± 0.46 and the body weight (TCDD 6.9 μg/kg + UDCA 0.25 wt %, 59 days) was 27.74 ± 0.48. The “Weight (body weight)” value (TCDD 6.9 μg/kg + UDCA 0.25 wt %) was 24.72 ± 1.39 g, the body weight (TCDD 6.9 μg/kg + UDCA 0.5 wt %, 0 day) was 19.97 ± 0.28 and the body weight (TCDD 6.9 μg/kg + UDCA 0.5 wt %, 12 days) was 21.81 ± 0.32. It also gave a body weight (TCDD 6.9 μg/kg + UDCA 0.5 wt %, 22 days) of 23.26 ± 0.37, a body weight (TCDD 6.9 μg/kg + UDCA 0.5 wt %, 32 days) of 24.28 ± 0.50 and a body weight (TCDD 6.9 μg/kg + UDCA 0.5 wt %, 39 days) of 25.22 ± 0.49. For the same compound, the body weight (TCDD 6.9 μg/kg + UDCA 0.5 wt %, 50 days) was 27.15 ± 0.49, the body weight (TCDD 6.9 μg/kg + UDCA 0.5 wt %, 59 days) was 27.06 ± 0.56 and the “Weight (body weight)” value (TCDD 6.9 μg/kg + UDCA 0.5 wt %) was 24.19 ± 1.38 g. For the same compound, the body weight (TCDD 27.5 μg/kg + UDCA 0.125 wt %, 0 day) was 19.80 ± 0.25, the body weight (TCDD 27.5 μg/kg + UDCA 0.125 wt %, 12 days) was 22.04 ± 0.26 and the body weight (TCDD 27.5 μg/kg + UDCA 0.125 wt %, 22 days) was 23.59 ± 0.28. For the same compound, the body weight (TCDD 27.5 μg/kg + UDCA 0.125 wt %, 32 days) was 24.17 ± 0.33, the body weight (TCDD 27.5 μg/kg + UDCA 0.125 wt %, 39 days) was 25.48 ± 0.36 and the body weight (TCDD 27.5 μg/kg + UDCA 0.125 wt %, 50 days) was 26.63 ± 0.28. The body weight (TCDD 27.5 μg/kg + UDCA 0.125 wt %, 59 days) was 26.93 ± 0.34, the “Weight (body weight)” value (TCDD 27.5 μg/kg + UDCA 0.125 wt %) was 24.58 ± 1.07 g and the body weight (TCDD 27.5 μg/kg + UDCA 0.25 wt %, 0 day) was 19.96 ± 0.30. For the same compound, the body weight (TCDD 27.5 μg/kg + UDCA 0.25 wt %, 12 days) was 22.22 ± 0.29, the body weight (TCDD 27.5 μg/kg + UDCA 0.25 wt %, 22 days) was 23.56 ± 0.37 and the body weight (TCDD 27.5 μg/kg + UDCA 0.25 wt %, 32 days) was 24.34 ± 0.38. It also gave a body weight (TCDD 27.5 μg/kg + UDCA 0.25 wt %, 39 days) of 25.38 ± 0.37, a body weight (TCDD 27.5 μg/kg + UDCA 0.25 wt %, 50 days) of 26.94 ± 0.50 and a body weight (TCDD 27.5 μg/kg + UDCA 0.25 wt %, 59 days) of 27.27 ± 0.51. The “Weight (body weight)” value (TCDD 27.5 μg/kg + UDCA 0.25 wt %) was 24.62 ± 1.44 g, the body weight (TCDD 27.5 μg/kg + UDCA 0.5 wt %, 0 day) was 19.08 ± 0.20 and the body weight (TCDD 27.5 μg/kg + UDCA 0.5 wt %, 12 days) was 21.09 ± 0.32. It also gave a body weight (TCDD 27.5 μg/kg + UDCA 0.5 wt %, 22 days) of 22.52 ± 0.33, a body weight (TCDD 27.5 μg/kg + UDCA 0.5 wt %, 32 days) of 23.33 ± 0.32 and a body weight (TCDD 27.5 μg/kg + UDCA 0.5 wt %, 39 days) of 24.07 ± 0.34. The body weight (TCDD 27.5 μg/kg + UDCA 0.5 wt %, 50 days) was 25.31 ± 0.43, the body weight (TCDD 27.5 μg/kg + UDCA 0.5 wt %, 59 days) was 24.52 ± 0.42 and the “Weight (body weight)” value (TCDD 27.5 μg/kg + UDCA 0.5 wt %) was 22.15 ± 1.14 g. The body weight (TCDD 110.0 μg/kg + UDCA 0.125 wt %, 0 day) was 19.48 ± 0.29, the body weight (TCDD 110.0 μg/kg + UDCA 0.125 wt %, 12 days) was 19.40 ± 0.40 and the body weight (TCDD 110.0 μg/kg + UDCA 0.125 wt %, 22 days) was 18.44 ± 0.87. For the same compound, the body weight (TCDD 110.0 μg/kg + UDCA 0.125 wt %, 32 days) was 12.61, the “Weight (body weight)” value (TCDD 110.0 μg/kg + UDCA 0.125 wt %) was 15.93 g and the body weight (TCDD 110.0 μg/kg + UDCA 0.25 wt %, 0 day) was 19.65 ± 0.44. For the same compound, the body weight (TCDD 110.0 μg/kg + UDCA 0.25 wt %, 12 days) was 20.64 ± 0.50, the body weight (TCDD 110.0 μg/kg + UDCA 0.25 wt %, 22 days) was 19.69 ± 1.03 and the body weight (TCDD 110.0 μg/kg + UDCA 0.25 wt %, 32 days) was 18.78 ± 1.14. It also gave a body weight (TCDD 110.0 μg/kg + UDCA 0.25 wt %, 39 days) of 14.26, a body weight (TCDD 110.0 μg/kg + UDCA 0.25 wt %, 50 days) of 14.85 and a body weight (TCDD 110.0 μg/kg + UDCA 0.25 wt %, 59 days) of 17.10. For the same compound, the “Weight (body weight)” value (TCDD 110.0 μg/kg + UDCA 0.25 wt %) was 18.53 ± 3.79 g, the body weight (TCDD 110.0 μg/kg + UDCA 0.5 wt %, 0 day) was 19.71 ± 0.14 and the body weight (TCDD 110.0 μg/kg + UDCA 0.5 wt %, 12 days) was 20.52 ± 0.32. It also gave a body weight (TCDD 110.0 μg/kg + UDCA 0.5 wt %, 22 days) of 21.15 ± 0.82, a body weight (TCDD 110.0 μg/kg + UDCA 0.5 wt %, 32 days) of 20.76 ± 1.04 and a body weight (TCDD 110.0 μg/kg + UDCA 0.5 wt %, 39 days) of 19.81 ± 1.37. The body weight (TCDD 110.0 μg/kg + UDCA 0.5 wt %, 50 days) was 18.19 ± 1.80 and the body weight (TCDD 110.0 μg/kg + UDCA 0.5 wt %, 59 days) was 18.53 ± 1.59.

From patent US20040029965A1, “Formulations for reducing or eliminating toxicity of enviromental hormones containing ursodeoxycholic acid” (priority 2000, published 2004)
